Biological target: T1, short form of the GPR120 receptor (Homo sapiens, UniProt Q5NUL3)
T1 construct: host or cells: PathHunter CHO-K1 GPR120S beta-Arrestin Cell Line
T1 sequence (Q5NUL3 1-361): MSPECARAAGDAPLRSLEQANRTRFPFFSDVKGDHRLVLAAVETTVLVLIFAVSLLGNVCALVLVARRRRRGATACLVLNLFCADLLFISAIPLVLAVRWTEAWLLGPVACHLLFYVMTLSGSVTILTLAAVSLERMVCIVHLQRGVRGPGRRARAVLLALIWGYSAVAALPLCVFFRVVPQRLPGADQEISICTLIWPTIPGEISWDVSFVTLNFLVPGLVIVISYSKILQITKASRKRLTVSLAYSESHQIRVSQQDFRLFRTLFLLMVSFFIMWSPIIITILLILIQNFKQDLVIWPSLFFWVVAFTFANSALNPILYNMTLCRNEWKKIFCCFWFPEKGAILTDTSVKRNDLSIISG
Assay: Human GPR120 DiscoveRx PathHunter Beta-Arrestin Assay, Procedure B
Format: cell-based
Conditions: PathHunter CHO-K1 GPR120S cells, 5000 cells/well
Description: Human GPR120 DiscoveRx PathHunter® Beta-Arrestin Assay
The binding of an agonist (medium/long chain fatty acids or small molecule agonists) to the G-protein-coupled receptor GPR120 activates phospholipase C, leading to release of intracellular Ca^+2 through the generation of inositol 1,4,5-trisphosphate (InsP3 or IP3). GPR120 activation can also trigger intracellular signaling via recruitment of Beta-Arrestin. In the present method, agonist-induced activation of the human GPR120 receptor is monitored through the use of PathHunter® CHO-K1 GPR120 Beta-Arrestin Cell Line engineered by DiscoveRx, as detailed below. The cell lines were designed to co-express both the ProLink/Enzyme Donor (PK)-tagged GPCR and the Enzyme […] (EA)-tagged Beta-Arrestin fusion proteins. Upon GPR120 receptor stimulation/activation, the EA-tagged Beta-Arrestin portion is translocated to the tagged receptor, where the two enzyme fragments are brought within close proximity. Under these conditions, these fragments can interact and form an active Beta-gal enzyme complex through Enzyme Fragment Complementation (EFC). This active Beta-gal complex can enzymatically hydrolyse the substrate to produce a detectable light signal; therefore, activation as a function of agonist concentration can be expressed as an EC50 value to determine relative compound activities. This in vitro assay therefore serves to assess compound agonist activity of the GPR120.
In Procedure β-arrestin B the cells used were PathHunter® CHO-K1 GPR120S β-Arrestin Cell Line, expressing the short form of the GPR120 receptor (Accession #[…]), with 5000 cells/well.
The selected CHO-K1 GPR120 β-Arrestin cells were cultured in Ham's F12 media supplemented with 10% fetal bovine serum (FBS), 1% Glutamine, 1× p/s, 800 μg/mL G418 and 300 μg/mL Hygromycin B (for selection). Cell stocks were maintained and grown in a sub-confluent state using standard cell culture procedures. The day before the experiment, the cells were harvested with non-enzymatic cell dissociation buffer and re-suspended in complete growth media at the desired concentration. A Corning 384-plate was then seeded with the proper number of cells in a volume of 25 μL, per well. The seeded plates were incubated overnight at 37° C.
On the day of the experiment, the Assay Buffer containing (a) HBSS with Ca^++ and Mg^++, (b) 20 mM HEPES, and (c) 0.1% BSA stabilizer (pH 7.4) was prepared. The growth medium was gently removed from the cell plates and 20 μL of Assay Buffer added to each well. The plate was then incubated at 37° C. for 60 min. Test compounds were serially diluted in Assay Buffer to desired concentrations (more particularly to one or more of the following μM concentrations: 25, 12.5, 6.25, 3.12, 1.56, 0.78, 0.39, 0.19, 0.10, 0.05, 0.02, 0.01). Five μL of compound dilution was then added to each well and the plate incubated at 37° C. for 90 min. The detection reagents were prepared according to the manufacture's instruction. Twelve μL of the detection reagents were added to each well and the plate incubated at room temperature for 60 min.
The plates were read on an EnVision instrument, using Protocol name: Luminescence, Plate type: 384 Costar, Measurement height: 3 mm, Measurement time: 1 s, Aperture: 384 Plate aperture. The % Activity relative to the positive control was calculated using the following equation:
The % Activity values were plotted versus the concentration of test compound and fitted to a sigmoidal dose-response curve with a Hill slope=1 (fixed value) using nonlinear regression with GraphPad Prism 5.0 to calculate the EC50 values. The Fitting Equation was: Y=Bottom+(Top−Bottom)/(1+10^((Log EC50−X)*HillSlope)), where X is the log of the concentration and Y is the response.

`Cc1c(CCC(=O)O)ccc(OCC2=C(c3ccc(Cl)cc3)COCC2)c1C` [ID No. 745, 3-[4-[[5-(4-chlorophenyl)-3,6-dihydro-2H-pyran-4-yl]methoxy]-2,3-dimethyl-phenyl]propanoic acid] showed an EC50 of 243 nM.

Source: patent US20210024483A1, “HETEROCYLCOALKENYL DERIVATIVES USEFUL AS AGONISTS OF THE GPR120 AND / OR GPR40” (Janssen Pharmaceutica NV, priority 2018, published 2021)
